Biological target: T1, FGFR3 G697C (Homo sapiens, UniProt P22607, G697C)
T1 construct: purchased Thermo Fisher Scientific (Life Technologies) SelectScreen
Experiment: SelectScreen LanthaScreen
Type: binding
Details: read-out: % displacement
Method in brief: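 NU5455 was profiled across the SelectScreen Broad panel of kinase activity and binding assays. Z'LYTE reactions such as CSF1R ran at apparent Km ATP, while the Adapta CAMK1 assay used ATP listed as 10. Values are given as percent.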

T1 sequence (P22607 23-806 G697C): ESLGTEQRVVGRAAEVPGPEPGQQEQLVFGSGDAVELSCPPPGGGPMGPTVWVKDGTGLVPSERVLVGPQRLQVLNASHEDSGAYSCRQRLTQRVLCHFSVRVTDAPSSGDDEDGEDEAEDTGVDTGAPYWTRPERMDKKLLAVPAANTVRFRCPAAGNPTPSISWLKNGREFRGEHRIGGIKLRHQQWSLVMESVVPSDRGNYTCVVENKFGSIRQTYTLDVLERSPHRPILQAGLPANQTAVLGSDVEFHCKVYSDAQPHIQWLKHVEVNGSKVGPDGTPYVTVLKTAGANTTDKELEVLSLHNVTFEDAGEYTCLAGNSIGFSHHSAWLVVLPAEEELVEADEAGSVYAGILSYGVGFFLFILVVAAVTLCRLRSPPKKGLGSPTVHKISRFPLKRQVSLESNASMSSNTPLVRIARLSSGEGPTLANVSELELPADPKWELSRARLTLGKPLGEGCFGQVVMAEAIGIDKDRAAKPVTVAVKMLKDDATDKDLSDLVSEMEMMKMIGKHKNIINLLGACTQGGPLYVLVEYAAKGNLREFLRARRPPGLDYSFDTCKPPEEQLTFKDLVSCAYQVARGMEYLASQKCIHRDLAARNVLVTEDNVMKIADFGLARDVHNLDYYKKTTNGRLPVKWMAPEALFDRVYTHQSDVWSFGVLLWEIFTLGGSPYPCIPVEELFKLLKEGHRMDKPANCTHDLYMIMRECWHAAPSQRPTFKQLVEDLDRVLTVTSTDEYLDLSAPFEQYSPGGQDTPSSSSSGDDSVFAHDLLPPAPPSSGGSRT

## CN(C(=O)CN1CCOCC1)c1ccc2sc3c(-c4cccc5c(=O)cc(N6CC7CCC(C6)O7)oc45)cccc3c2c1 [NU5455]
  inhibition at 1 µM: 3.1%

— publication PMC6934184, “Selective DNA-PKcs inhibition extends the therapeutic index of localized radiotherapy and chemotherapy” (The Journal of Clinical Investigation, 2019)
